From patent US7781591B2, “Substituted 3-cyanopyridines as protein kinase inhibitors” (Wyeth LLC, priority 2006, dated 2010)

molecular target: T1, human PKCθ full length enzyme (Homo sapiens, UniProt Q04759); test: PKCθ IMAP assay (fluorescence polarization); assay type: biochemical; settings: human PKCθ full length enzyme, IMAP; average value; read-out: IC50 PKCθ IMAP
T1 construct: human PKCθ full length enzyme (Panvera Cat# P2996); purchased Panvera P2996
T1 sequence (Q04759 whole entry): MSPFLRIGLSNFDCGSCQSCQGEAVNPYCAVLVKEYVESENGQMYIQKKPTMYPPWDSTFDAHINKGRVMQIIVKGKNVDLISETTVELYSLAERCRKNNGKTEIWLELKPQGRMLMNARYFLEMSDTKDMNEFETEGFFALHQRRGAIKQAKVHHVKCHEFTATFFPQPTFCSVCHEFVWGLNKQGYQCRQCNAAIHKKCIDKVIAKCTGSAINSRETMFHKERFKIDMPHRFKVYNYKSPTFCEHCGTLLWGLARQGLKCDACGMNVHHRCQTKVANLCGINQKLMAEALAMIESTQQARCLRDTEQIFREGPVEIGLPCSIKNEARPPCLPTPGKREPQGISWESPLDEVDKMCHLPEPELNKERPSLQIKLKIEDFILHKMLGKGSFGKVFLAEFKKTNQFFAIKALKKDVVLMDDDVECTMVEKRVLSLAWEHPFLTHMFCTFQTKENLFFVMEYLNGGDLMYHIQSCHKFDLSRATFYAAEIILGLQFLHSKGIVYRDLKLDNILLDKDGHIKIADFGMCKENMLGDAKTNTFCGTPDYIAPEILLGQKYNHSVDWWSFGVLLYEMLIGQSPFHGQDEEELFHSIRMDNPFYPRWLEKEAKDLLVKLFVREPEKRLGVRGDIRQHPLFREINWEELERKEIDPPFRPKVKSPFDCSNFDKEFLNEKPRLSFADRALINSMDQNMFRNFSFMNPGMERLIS

Point of comparison: `COc1ccc(-c2cncc(C#N)c2NCCC2CCNCC2)cc1OC` [Compound 444, 5-(3,4-dimethoxyphenyl)-4-[(2-piperidin-4-ylethyl)amino]nicotinonitrile], IC50 2460 nM. Against it:
- COc1ccc(-c2cncc(C#N)c2NCC2CCN(C)CC2)cc1OC [Compound 448, 5-(3,4-dimethoxyphenyl)-4-{[(1-methylpiperidin-4-yl)methyl]amino}nicotinonitrile] — 5.7-fold higher, 14100 nM
- Cc1c(Nc2c(C#N)cncc2-c2cc3cc(CN4CCCC4)ccc3o2)ccc2[nH]ccc12 [Compound 389, 4-[(4-methyl-1H-indol-5-yl)amino]-5-[5-(pyrrolidin-1-ylmethyl)-1-benzofuran-2-yl]nicotinonitrile] — 820-fold lower, 3 nM
- COc1ccc(-c2cncc(C#N)c2Nc2ccc3[nH]ccc3c2)cc1OCCNCCCc1ccccc1 [Compound 250, 4-(1H-indol-5-ylamino)-5-(4-methoxy-3-{2-[(3-phenylpropyl)amino]ethoxy}phenyl)nicotinonitrile] — 120-fold lower, 20 nM
- Cc1c(Nc2c(C#N)cncc2-c2cc3cc(CN4CCN(S(C)(=O)=O)CC4)ccc3o2)ccc2[nH]ccc12 [Compound 538, 4-[(4-methyl-1H-indol-5-yl)amino]-5-(5-{[4-(methylsulfonyl)piperazin-1-yl]methyl}-1-benzofuran-2-yl)nicotinonitrile] — 160-fold lower, 15 nM
- N#Cc1cncc(-c2cc3ccccc3[nH]2)c1Nc1cccc2[nH]ccc12 [Compound 325, 5-(1H-indol-2-yl)-4-(1H-indol-4-ylamino)nicotinonitrile] — 41-fold lower, 60 nM
- Cc1c(Nc2c(C#N)cncc2-c2cnc(N3CCOCC3)nc2)ccc2[nH]ccc12 [Compound 511, 4-[(4-methyl-1H-indol-5-yl)amino]-5-(2-morpholin-4-ylpyrimidin-5-yl)nicotinonitrile] — 30-fold lower, 83 nM
- 4-[(4-methyl-1H-indol-5-yl)amino]-5-(5-{[(3-phenylpropyl)amino]methyl}-2-furyl)nicotinonitrile [Compound 409] — 91-fold lower, 27 nM
- COc1ccc(-c2cncc(C#N)c2Nc2ccc3[nH]ccc3c2)cc1OCCNc1nnc(C)s1 [Compound 183, 4-(1H-indol-5-ylamino)-5-(4-methoxy-3-{2-[(5-methyl-1,3,4-thiadiazol-2-yl)amino]ethoxy}phenyl)nicotinonitrile] — 35-fold lower, 70 nM
- CN(C)c1ccc(-c2cncc(C#N)c2Nc2ccc3cn[nH]c3c2)cc1 [Compound 293, 5-[4-(dimethylamino)phenyl]-4-(1H-indazol-6-ylamino)nicotinonitrile] — 15-fold higher, 36000 nM
- CCN(CC)Cc1ccc2oc(-c3cncc(C#N)c3Nc3cc4cc[nH]c4cc3C)cc2c1 [Compound 500, 5-{5-[(diethylamino)methyl]-1-benzofuran-2-yl}-4-[(6-methyl-1H-indol-5-yl)amino]nicotinonitrile] — 490-fold lower, 5 nM
- N#Cc1cncc(-c2cccc(-c3ccc(C=O)s3)c2)c1Nc1ccc2[nH]ccc2c1 [Compound 150, 5-[3-(5-formyl-2-thienyl)phenyl]-4-(1H-indol-5-ylamino)nicotinonitrile] — 20-fold lower, 120 nM
- Cc1c(Nc2c(C#N)cncc2-c2cnc(N3CCCC3)nc2)ccc2[nH]ccc12 [Compound 512, 4-[(4-methyl-1H-indol-5-yl)amino]-5-(2-pyrrolidin-1-ylpyrimidin-5-yl)nicotinonitrile] — 11-fold lower, 215 nM
- COc1ccc(-c2cncc(C#N)c2Nc2cc(Cl)c3[nH]ccc3c2C)cc1OC [Compound 498, 4-[(7-chloro-4-methyl-1H-indol-5-yl)amino]-5-(3,4-dimethoxyphenyl)nicotinonitrile] — 150-fold lower, 16 nM
- N#Cc1cncc(-c2ccc(OC[C@H](N)Cc3ccccc3)cc2)c1Nc1cccc2[nH]ccc12 [Compound 458, 5-(4-{[(2R)-2-amino-3-phenylpropyl]oxy}phenyl)-4-(1H-indol-4-ylamino)nicotinonitrile] — 180-fold lower, 14 nM
- Cc1c(Nc2c(C#N)cncc2-c2ccc(CN3CCOCC3)cc2)ccc2[nH]ccc12 [Compound 451, 4-[(4-methyl-1H-indol-5-yl)amino]-5-[4-(morpholin-4-ylmethyl)phenyl]nicotinonitrile] — 270-fold lower, 9 nM
- Cc1c(Nc2c(C#N)cncc2-c2cncnc2)ccc2[nH]ccc12 [Compound 509, 4-[(4-methyl-1H-indol-5-yl)amino]-5-pyrimidin-5-ylnicotinonitrile] — 9.4-fold lower, 261 nM
- COc1ccc(-c2cncc(C#N)c2Nc2ccc3[nH]ccc3c2C)cc1OCCNCCCc1ccccc1 [Compound 342, 5-(4-methoxy-3-{2-[(3-phenylpropyl)amino]ethoxy}phenyl)-4-[(4-methyl-1H-indol-5-yl)amino]nicotinonitrile] — 2500-fold lower, 1 nM
- COc1ccc(-c2cncc(C#N)c2Nc2ccc3[nH]ccc3c2)cc1OCCNCc1ccncc1 [Compound 240, 4-(1H-indol-5-ylamino)-5-(4-methoxy-3-{2-[(pyridin-4-ylmethyl)amino]ethoxy}phenyl)nicotinonitrile] — 31-fold lower, 80 nM
- Cc1c(Nc2c(C#N)cncc2-c2cc3cc(CN4CCCCC4)ccc3o2)ccc2[nH]ccc12 [Compound 461, 4-[(4-methyl-1H-indol-5-yl)amino]-5-[5-(piperidin-1-ylmethyl)-1-benzofuran-2-yl]nicotinonitrile] — 2500-fold lower, 1 nM
- Cc1c(Nc2c(C#N)cncc2-c2cccc(-c3cccs3)c2)ccc2[nH]ccc12 [Compound 304, 4-[(4-methyl-1H-indol-5-yl)amino]-5-[3-(2-thienyl)phenyl]nicotinonitrile] — 22-fold lower, 110 nM
- N#Cc1cncc(-c2cc3cc(CN4CCNCC4)ccc3s2)c1Nc1cccc2[nH]ccc12 [Compound 359, 4-(1H-indol-4-ylamino)-5-[5-(piperazin-1-ylmethyl)-1-benzothien-2-yl]nicotinonitrile] — 120-fold lower, 20 nM
- N#Cc1cncc(-c2cccc(O)c2)c1Nc1cccc2[nH]ccc12 [Compound 358, 5-(3-hydroxyphenyl)-4-(1H-indol-4-ylamino)nicotinonitrile] — 250-fold lower, 10 nM
- COc1ccc(-c2cncc(C#N)c2Nc2cccc3[nH]ccc23)cc1OCCNCCc1c[nH]cn1 [Compound 339, 5-[3-(2-{[2-(1H-imidazol-4-yl)ethyl]amino}ethoxy)-4-methoxyphenyl]-4-(1H-indol-4-ylamino)nicotinonitrile] — 250-fold lower, 10 nM
- COc1ccc(-c2cncc(C#N)c2Nc2ccc3[nH]ccc3c2F)cc1OC [Compound 546, 5-(3,4-dimethoxyphenyl)-4-[(4-fluoro-1H-indol-5-yl)amino]nicotinonitrile] — 490-fold lower, 5 nM
- Cc1c(Nc2c(C#N)cncc2-c2cccc(CN3CCCC3)c2)ccc2[nH]ccc12 [Compound 455, 4-[(4-methyl-1H-indol-5-yl)amino]-5-[3-(pyrrolidin-1-ylmethyl)phenyl]nicotinonitrile] — 350-fold lower, 7 nM
- COc1ccc(CN2CCN(C)CC2)cc1-c1cncc(C#N)c1Nc1ccc2[nH]ccc2c1C [Compound 552, 5-{2-methoxy-5-[(4-methylpiperazin-1-yl)methyl]phenyl}-4-[(4-methyl-1H-indol-5-yl)amino]nicotinonitrile] — 29-fold lower, 84 nM
- Cc1csc(-c2cccc(-c3cncc(C#N)c3Nc3ccc4[nH]ccc4c3)c2)c1 [Compound 139, 4-(1H-indol-5-ylamino)-5-[3-(4-methyl-2-thienyl)phenyl]nicotinonitrile] — 9.8-fold lower, 250 nM
- 5-{5-[(cyclohexylamino)methyl]-1-benzofuran-2-yl}-4-[(4-methyl-1H-indol-5-yl)amino]nicotinonitrile [Compound 387] — 2500-fold lower, 1 nM
- COc1ccc(-c2cncc(C#N)c2Nc2ccc3[nH]ccc3c2)cc1OCCNCc1ccccc1 [Compound 181, 5-{3-[2-(benzylamino)ethoxy]-4-methoxyphenyl}-4-(1H-indol-5-ylamino)nicotinonitrile] — 63-fold lower, 39 nM
- COc1ccc(-c2cncc(C#N)c2Nc2ccc3[nH]ccc3c2)cc1OCCNC1CCCC1 [Compound 243, 5-{3-[2-(cyclopentylamino)ethoxy]-4-methoxyphenyl}-4-(1H-indol-5-ylamino)nicotinonitrile] — 11-fold lower, 230 nM
- Cc1c(Nc2c(C#N)cncc2-c2cc3cc(CN(C)C)ccc3o2)ccc2[nH]ccc12 [Compound 382, 5-{5-[(dimethylamino)methyl]-1-benzofuran-2-yl}-4-[(4-methyl-1H-indol-5-yl)amino]nicotinonitrile] — 410-fold lower, 6 nM
- CCCCN1CCN(CCOc2ccc(-c3cncc(C#N)c3Nc3ccc4[nH]ccc4c3C)cc2)CC1 [Compound 368, 5-{4-[2-(4-butylpiperazin-1-yl)ethoxy]phenyl}-4-[(4-methyl-1H-indol-5-yl)amino]nicotinonitrile] — 250-fold lower, 10 nM
- 4-[(4-methyl-1H-indol-5-yl)amino]-5-[5-(thiomorpholin-4-ylmethyl)-2-furyl]nicotinonitrile [Compound 411] — 310-fold lower, 8 nM
- N#Cc1cncc(-c2cc3ccccc3o2)c1Nc1ccc2[nH]ccc2c1 [Compound 268, 5-(1-benzofuran-2-yl)-4-(1H-indol-5-ylamino)nicotinonitrile] — 250-fold lower, 10 nM
- N#Cc1cncc(-c2cc3cc(CN4CCCCC4)ccc3s2)c1Nc1cccc2[nH]ccc12 [Compound 283, 4-(1H-indol-4-ylamino)-5-[5-(piperidin-1-ylmethyl)-1-benzothien-2-yl]nicotinonitrile] — 1200-fold lower, 2 nM
- Cc1c(Nc2c(C#N)cncc2-c2cc3cc(CN4CCN(C)CC4)ccc3o2)cc(Cl)c2[nH]ccc12 [Compound 529, 4-[(7-chloro-4-methyl-1H-indol-5-yl)amino]-5-{5-[(4-methylpiperazin-1-yl)methyl]-1-benzofuran-2-yl}nicotinonitrile] — 1200-fold lower, 2 nM
- Cc1c(Nc2c(C#N)cncc2-c2cccnc2)ccc2[nH]ccc12 [Compound 519, 4-[(4-methyl-1H-indol-5-yl)amino]-3,3′-bipyridine-5-carbonitrile] — 68-fold lower, 36 nM
- Cc1c(Nc2c(C#N)cncc2-c2ccc(OCCN3CCN(CCO)CC3)cc2)ccc2[nH]ccc12 [Compound 427, 5-(4-{2-[4-(2-hydroxyethyl)piperazin-1-yl]ethoxy}phenyl)-4-[(4-methyl-1H-indol-5-yl)amino]nicotinonitrile] — 180-fold lower, 14 nM
- Cc1c(Nc2c(C#N)cncc2-c2ccc(OCCN3CCCN(C)CC3)cc2)ccc2[nH]ccc12 [Compound 426, 5-{4-[2-(4-methyl-1,4-diazepan-1-yl)ethoxy]phenyl}-4-[(4-methyl-1H-indol-5-yl)amino]nicotinonitrile] — 190-fold lower, 13 nM
